These results are taken from patent US8557816B2, “Aurora kinase modulators and method of use” (Amgen Inc., priority 2007, dated 2013).

In one test the target is T1, AuroraA-TPX2 (Homo sapiens, UniProt O14965).
T1 construct: 20 μL of AuroraA-TPX2 KD GST for a final volume of about 41 μL; GST
T1 sequence (O14965 133-383 limits assumed): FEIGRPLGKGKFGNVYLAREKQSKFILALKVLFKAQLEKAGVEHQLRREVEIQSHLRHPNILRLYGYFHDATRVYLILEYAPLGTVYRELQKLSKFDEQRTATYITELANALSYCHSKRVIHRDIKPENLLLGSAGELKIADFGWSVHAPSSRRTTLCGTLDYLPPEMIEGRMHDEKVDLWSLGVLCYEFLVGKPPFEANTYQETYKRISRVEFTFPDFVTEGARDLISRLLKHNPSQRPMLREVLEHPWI
T1 sequence (Q9ULW0 1-43 partner limits assumed): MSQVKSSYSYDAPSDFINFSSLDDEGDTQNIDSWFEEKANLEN
Put plainly: AuroraA-TPX2 Homogeneous Time Resolved Fluorescent (HTRF) kinase assay. It counts as biochemical. The procedure, abridged:
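HTRF read-out (Eu 615 nm to APC 655 nm) of phosphorylated biotin-PLK, detected with 0.02 nM europium anti-phosphoPLK antibody and 0.0005 mg/mL SA-APC after overnight equilibration.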

For the next test, the target named is T2, AuroraB (Homo sapiens, UniProt Q96GD4).
T2 construct: 20 μL of AuroraB FL H is for a final volume of 41 μL; His
Put plainly: AuroraB Homogeneous Time Resolved Fluorescent (HTRF) kinase assay. It counts as biochemical. The procedure, abridged:
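Read-out is time-resolved FRET between europium anti-phospho-H3 antibody and streptavidin-APC, added in EDTA buffer to stop the reaction and equilibrated about 60 min (ex 320, em 615 and 655 nm). Preceding reaction: ~90 min, full-length enzyme, ATP, 0.1 μM biotin-Histone H3 substrate, Mg/Mn HEPES buffer pH 7.5.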

Setting [1] is: average, read-out: AurA_IC50_IP (uM Avg).
Where [2] appears, read: average, read-out: AurB_IC50_IP (uM Avg).

Like-named read-outs stand apart in the source and are kept apart here.

T2 sequence (Q96GD4 whole entry): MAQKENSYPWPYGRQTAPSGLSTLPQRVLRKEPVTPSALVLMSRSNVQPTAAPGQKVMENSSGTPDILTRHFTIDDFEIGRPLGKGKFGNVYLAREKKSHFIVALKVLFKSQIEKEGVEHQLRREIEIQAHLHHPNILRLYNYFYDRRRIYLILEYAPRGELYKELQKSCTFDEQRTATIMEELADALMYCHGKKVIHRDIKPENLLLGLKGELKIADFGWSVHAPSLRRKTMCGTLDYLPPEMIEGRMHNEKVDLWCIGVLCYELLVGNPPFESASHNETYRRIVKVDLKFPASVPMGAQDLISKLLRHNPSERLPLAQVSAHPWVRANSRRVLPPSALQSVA

As for `Cc1csc(-c2nnc(Nc3ccc(Oc4ncnc5ccccc45)cc3)c3ccccc23)c1` [compound 568], the IC50 at AuroraA-TPX2 (setting [1]) stood at 0.233 µM; at AuroraB (setting [2]), 0.011 µM.
The matching figures for `Cc1ccc(-c2nnc(Nc3ccc(Sc4ccnc5cc(C#N)oc45)cc3)c3ccccc23)cc1N` [compound 490]: 0.09 µM and 0.013 µM.
In the same order, the values of `c1ccc(-c2nnc(Nc3ccc(Sc4ccnc5[nH]cnc45)cc3)c3ccccc23)cc1` [compound 362, N-(4-(3H-imidazo[4,5-b]pyridin-7-ylthio)phenyl)-4-phenylphthalazin-1-amine] are 0.066 µM and 0.092 µM.
In the same order, the values of `COc1cnc2c(Oc3ccc(Nc4nnc(-c5ccc(F)nc5)c5ccccc45)cc3)ccnc2c1` [compound 190, 4-(6-fluoro-3-pyridinyl)-N-(4-((7-(methyloxy)-1,5-naphthyridin-4-yl)oxy)phenyl)-1-phthalazinamine] are 0.052 µM and 0.005 µM.
For `COc1cc2nccc(Sc3ccc(Nc4nnc(-c5ccc(Cl)cc5)c5ccccc45)cc3)c2cn1` [compound 354, 4-(4-chlorophenyl)-N-(4-(7-methoxy-1,6-naphthyridin-4-ylthio)phenyl)phthalazin-1-amine], the results for the IC50 on AuroraA-TPX2 (setting [1]) and at AuroraB (setting [2]) were 0.025 µM and 0.009 µM, respectively.
On to `COCCOCCOc1ccc2nccc(Sc3ccc(Nc4nnc(-c5ccc(Cl)cc5)c5ccccc45)cc3)c2c1` [Example 389, 4-(4-Chlorophenyl)-N-(4-(6-(2-(2-methoxyethoxy)ethoxy)quinolin-4-ylthio)phenyl)phthalazin-1-amine], for which the results for the IC50 on AuroraA-TPX2 (setting [1]) and at AuroraB (setting [2]) were 0.021 µM and 0.022 µM, respectively.
For `Cc1cccc(-c2nnc(Nc3ccc(Sc4ccnc5cccnc45)cc3)c3ccccc23)n1` [compound 421], the figures for the IC50 at AuroraA-TPX2 (setting [1]) and on AuroraB (setting [2]) were 0.142 µM and 0.008 µM, respectively.
The matching figures for `COc1cc(OC)c2c(Sc3ccc(Nc4nnc(-c5cc(C)cs5)c5ccccc45)cc3)ccnc2c1` [compound 439]: 1.66 µM and 3.2 µM.
Regarding `COc1cnc2c(Oc3ccc(Nc4nnc(N5CCN6CCC[C@H]6C5)c5ccccc45)cc3)ccnc2c1` [compound 97, 4-((8aS)-hexahydropyrrolo[1,2-a]pyrazin-2(1H)-yl)-N-(4-((7-(methyloxy)-1,5-naphthyridin-4-yl)oxy)phenyl)-1-phthalazinamine], the results for the IC50 at AuroraA-TPX2 (setting [1]) and at AuroraB (setting [2]) were 0.01 µM and 0.002 µM, respectively.
The matching figures for `Cn1cncc1-c1cc2nccc(Oc3ccc(Nc4nnc(-c5ccc(Cl)cc5)c5ccccc45)cc3)c2s1` [compound 249, 4-(4-chlorophenyl)-N-(4-((2-(1-methyl-1H-imidazol-5-yl)thieno[3,2-b]pyridin-7-yl)oxy)phenyl)-1-phthalazinamine]: 0.004 µM and 0.001 µM.
In the same order, the values of `COc1cnc2c(Sc3ccc(Nc4nnc(C5CC5)c5ccccc45)cc3)ccnc2c1` [compound 541] are 0.393 µM and 0.025 µM.
The matching figures for `COc1cnc2c(Oc3ccc(Nc4nnc(-c5ccc(Cl)c(C)c5)c5ccccc45)cc3)ccnc2c1` [compound 236, 4-(4-chloro-3-methylphenyl)-N-(4-((7-(methyloxy)-1,5-naphthyridin-4-yl)oxy)phenyl)-1-phthalazinamine]: 0.027 µM and 0.008 µM.
With `COc1cnc2c(Oc3ccc(Nc4nnc(-c5cc(C)no5)c5ccccc45)cc3)ccnc2c1` [compound 350, N-(4-(7-methoxy-1,5-naphthyridin-4-yloxy)phenyl)-4-(3-methylisoxazol-5-yl)phthalazin-1-amine], the figures for the IC50 on AuroraA-TPX2 (setting [1]) and on AuroraB (setting [2]) were 0.04 µM and 0.007 µM, respectively.
As for `COc1cnc2c(Oc3ccc(Nc4nnc(-c5ccc(Cl)s5)c5ccccc45)cc3)ccnc2c1` [compound 140, 4-(5-chloro-2-thienyl)-N-(4-((7-(methyloxy)-1,5-naphthyridin-4-yl)oxy)phenyl)-1-phthalazinamine], the figures for the IC50 at AuroraA-TPX2 (setting [1]) and on AuroraB (setting [2]) were 0.022 µM and 0.008 µM, respectively.
The matching figures for `Cc1csc(-c2nnc(Nc3ccc(Sc4ccnc5cc(C(=O)N6CCOCC6)sc45)cc3)c3ccccc23)c1` [compound 312, (7-(4-(4-(4-methylthiophen-2-yl)phthalazin-1-ylamino)phenylthio)thieno[3,2-b]pyridin-2-yl)(morpholino)methanone]: 0.022 µM and 0.03 µM.
In the same order, the values of `COc1cnc2c(Oc3ccc(Nc4nnc(-c5ccc(C)cn5)c5ccccc45)cc3)ccnc2c1` [compound 125, N-(4-((7-(methyloxy)-1,5-naphthyridin-4-yl)oxy)phenyl)-4-(5-methyl-2-pyridinyl)-1-phthalazinamine] are 0.018 µM and 0.003 µM.
In the same order, the values of `COc1cccc(-c2nnc(Nc3ccc(Oc4ccnc5cc(-c6cncn6C)sc45)cc3)c3ccccc23)n1` [compound 240, N-(4-((2-(1-methyl-1H-imidazol-5-yl)thieno[3,2-b]pyridin-7-yl)oxy)phenyl)-4-(6-(methyloxy)-2-pyridinyl)-1-phthalazinamine] are 0.006 µM and 0.001 µM.
As for `c1ccc(-c2nnc(Nc3ccc(Sc4ccnc5ccccc45)cc3)c3ccccc23)cc1` [compound 294, 4-phenyl-N-(4-(4-quinolinylthio)phenyl)-1-phthalazinamine], the IC50 was less than 0.1 µM at AuroraA-TPX2 (given as class symbol, read-out: AurA_IC50_IP (class symbol)) and less than 0.1 µM at AuroraB (given as class symbol, read-out: AurB_IC50_IP (class symbol)).
With `Cc1ccc(-c2nnc(Nc3ccc(Oc4ccnc5ccncc45)cc3)c3ccccc23)nc1` [compound 432], the IC50 on AuroraA-TPX2 (setting [1]) turned out to be 0.122 µM; on AuroraB (setting [2]) it was 0.012 µM.
The matching figures for `COc1cnc2c(Oc3ccc(Nc4nnc(-c5ccc(OC(C)C)cc5)c5ccccc45)cc3)ccnc2c1` [compound 137, 4-(4-((1-methylethyl)oxy)phenyl)-N-(4-((7-(methyloxy)-1,5-naphthyridin-4-yl)oxy)phenyl)-1-phthalazinamine]: 0.091 µM and 0.018 µM.
In the same order, the values of `COc1cnc2c(Oc3ccc(Nc4nnc(N5CCCCCC5)c5ccccc45)cc3)ccnc2c1` [Example 32, 4-(azepan-1-yl)-N-(4-(7-methoxy-1,5-naphthyridin-4-yloxy)phenyl)phthalazin-1-amine] are 0.016 µM and 0.009 µM.
In the same order, the values of `COc1cnc2c(Sc3ccc(Nc4nnc(Cl)c5ccccc45)cc3)ccnc2c1` [compound 536] are 0.812 µM and 0.031 µM.
For the molecule `COc1cnc2c(Oc3ccc(Nc4nnc(-c5cnn(C)c5)c5ccccc45)cc3)ccnc2c1` [compound 216, N-(4-((7-(methyloxy)-1,5-naphthyridin-4-yl)oxy)phenyl)-4-(1-methyl-1H-pyrazol-4-yl)-1-phthalazinamine], the IC50 on AuroraA-TPX2 (setting [1]) is 0.16 µM; at AuroraB (setting [2]), 0.006 µM.
The matching figures for `COc1cncc(-c2nnc(Nc3ccc(Oc4ccnc5cc(OC)cnc45)cc3)c3ccccc23)c1` [compound 129, N-(4-((7-(methyloxy)-1,5-naphthyridin-4-yl)oxy)phenyl)-4-(5-(methyloxy)-3-pyridinyl)-1-phthalazinamine]: 0.165 µM and 0.014 µM.
The matching figures for `Clc1ccc(-c2nnc(Nc3ccc(Sc4ccnc5[nH]ccc45)cc3)c3ccccc23)cc1` [compound 330, 4-(4-chlorophenyl)-N-(4-(1H-pyrrolo[2,3-b]pyridin-4-ylthio)phenyl)-1-phthalazinamine]: 0.038 µM and 0.009 µM.
